Reference: PMC13544220, “Glycemic and bodyweight effects of GIPR coding variation reflect differences in surface expression and intrinsic functional impairment” (Science Advances, 2026)

Key:
[1] = test system: wild-type and variant SNAP-GIPR; assay: Mini-Gs recruitment (nanoBiT) in AD293 cells; type: cell-based, human; details: 100 nM GIP, mean, n=7
Procedure: AD293 cells were reverse transfected with the GIPR variant or wild-type plasmids plus mini-Gs-LgBiT in a 1:1 ratio using Lipofectamine 2000 in 96-well white-bottom microplates precoated with 0.01% poly-D-lysine. All variants were tested in parallel on each occasion to control for transfection efficiency differences between experiments. After 24 hours, media were removed, cells washed once, and HBSS (Hanks’ balanced salt solution) containing furimazine (Promega, UK) at a 1:100 dilution was added. […] Responses were quantified by as fractional change from baseline with subtraction of the response to vehicle to account for substrate depletion, from which the AUC (area under the curve) was calculated and scaled to the average response obtained from each experiment.

[2] = test system: wild-type and variant SNAP-GIPR; assay: cAMP concentration response (HTRF) in AD293 cells, SNAP-GIPR; type: cell-based, human
Procedure: (Imperial College London): 24 hours before the experiment, AD293 cells were reverse transfected with the GIPR variant or wild-type plasmids using Lipofectamine 2000 in 12-well plates. All variants were tested in parallel on each occasion to control for transfection efficiency differences between experiments. […] Data were fit using a three-parameter logistic model using GraphPad Prism 10.

Structure (SMILES): CC[C@H](C)[C@H](NC(=O)[C@H](CO)NC(=O)[C@H](Cc1ccc(O)cc1)NC(=O)[C@H](CC(=O)O)NC(=O)[C@H](CO)NC(=O)[C@@H](NC(=O)[C@H](Cc1ccccc1)NC(=O)[C@@H](NC(=O)CNC(=O)[C@H](CCC(=O)O)NC(=O)[C@H](C)NC(=O)[C@@H](N)Cc1ccc(O)cc1)[C@@H](C)O)[C@@H](C)CC)C(=O)N[C@@H](C)C(=O)N[C@@H](CCSC)C(=O)N[C@@H](CC(=O)O)C(=O)N[C@@H](CCCCN)C(=O)N[C@H](C(=O)N[C@@H](Cc1c[nH]cn1)C(=O)N[C@@H](CCC(N)=O)C(=O)N[C@@H](CCC(N)=O)C(=O)N[C@@H](CC(=O)O)C(=O)N[C@@H](Cc1ccccc1)C(=O)N[C@H](C(=O)N[C@@H](CC(N)=O)C(=O)N[C@@H](Cc1c[nH]c2ccccc12)C(=O)N[C@@H](CC(C)C)C(=O)N[C@@H](CC(C)C)C(=O)N[C@@H](C)C(=O)N[C@@H](CCC(N)=O)C(=O)N[C@@H](CCCCN)C(=O)NCC(=O)N[C@@H](CCCCN)C(=O)N[C@@H](CCCCN)C(=O)N[C@@H](CC(N)=O)C(=O)N[C@@H](CC(=O)O)C(=O)N[C@@H](Cc1c[nH]c2ccccc12)C(=O)N[C@@H](CCCCN)C(=O)N[C@@H](Cc1c[nH]cn1)C(=O)N[C@@H](CC(N)=O)C(=O)N[C@H](C(=O)N[C@H](C(=O)N[C@@H](CCC(N)=O)C(=O)O)[C@@H](C)O)[C@@H](C)CC)C(C)C)[C@@H](C)CC [GIP, glucose-dependent insulinotropic polypeptide, reference compound]
- mini-Gs recruitment ([1]; A207V): 1.64 vs. experimental average
- mini-Gs recruitment ([1]; A268V): 1.037 vs. experimental average
- mini-Gs recruitment ([1]; D66G): 0.1098 vs. experimental average
- mini-Gs recruitment ([1]; E252D): 1.347 vs. experimental average
- mini-Gs recruitment ([1]; E288G): 0.1501 vs. experimental average
- mini-Gs recruitment ([1]; E354Q): 1.309 vs. experimental average
- mini-Gs recruitment ([1]; E463Q): 1.656 vs. experimental average
- mini-Gs recruitment ([1]; G438S): 1.599 vs. experimental average
- mini-Gs recruitment ([1]; I378M): 1.145 vs. experimental average
- mini-Gs recruitment ([1]; I403V): 1.332 vs. experimental average
- mini-Gs recruitment ([1]; L100F): 1.391 vs. experimental average
- mini-Gs recruitment ([1]; L262H): 1.034 vs. experimental average
- mini-Gs recruitment ([1]; L262V): 1.282 vs. experimental average
- mini-Gs recruitment ([1]; L304R): 0.04884 vs. experimental average
- mini-Gs recruitment ([1]; R101H): 0.1049 vs. experimental average
- mini-Gs recruitment ([1]; R131S): 1.232 vs. experimental average
- mini-Gs recruitment ([1]; R136W): 0.7709 vs. experimental average
- mini-Gs recruitment ([1]; R183Q): 0.3712 vs. experimental average
- mini-Gs recruitment ([1]; R190Q): -0.001793 vs. experimental average
- mini-Gs recruitment ([1]; R196G): 1.201 vs. experimental average
- mini-Gs recruitment ([1]; R217L): 1.091 vs. experimental average
- mini-Gs recruitment ([1]; R300W): 1.262 vs. experimental average
- mini-Gs recruitment ([1]; R336P): 1.585 vs. experimental average
- mini-Gs recruitment ([1]; R341P): 0.3717 vs. experimental average
- mini-Gs recruitment ([1]; R404H): 1.074 vs. experimental average
- mini-Gs recruitment ([1]; S64A): 0.6095 vs. experimental average
- mini-Gs recruitment ([1]; S415G): 1.199 vs. experimental average
- mini-Gs recruitment ([1]; S415I): 1.365 vs. experimental average
- mini-Gs recruitment ([1]; S447T): 1.5239 vs. experimental average
- mini-Gs recruitment ([1]; T116R): 0.9756 vs. experimental average
- mini-Gs recruitment ([1]; WT): 1.184 vs. experimental average
- cAMP signaling (∆LogEmax/EC50) ([2]; AD293, SNAP-GIPR E288G, R190Q, R101H, 0.1% BSA): markedly reduced responses
- cAMP agonism ([2]; AD293, SNAP-GIPR R101H and R190Q): very weak agonists
- cAMP signaling (∆LogEmax/EC50) ([2]; AD293, SNAP-GIPR S64A, R136W, R217L, vs wild-type): moderately reduced
